{
  "source": "paper PMC4861267",
  "about": "(PLoS ONE, 2016)",
  "key": {"histamine H2 receptor [1]": {"biological_target": "T1, histamine H2 receptor (Rattus norvegicus, UniProt P25102)", "T1 construct": "endogenous in cells", "T1 sequence (P25102 whole entry)": "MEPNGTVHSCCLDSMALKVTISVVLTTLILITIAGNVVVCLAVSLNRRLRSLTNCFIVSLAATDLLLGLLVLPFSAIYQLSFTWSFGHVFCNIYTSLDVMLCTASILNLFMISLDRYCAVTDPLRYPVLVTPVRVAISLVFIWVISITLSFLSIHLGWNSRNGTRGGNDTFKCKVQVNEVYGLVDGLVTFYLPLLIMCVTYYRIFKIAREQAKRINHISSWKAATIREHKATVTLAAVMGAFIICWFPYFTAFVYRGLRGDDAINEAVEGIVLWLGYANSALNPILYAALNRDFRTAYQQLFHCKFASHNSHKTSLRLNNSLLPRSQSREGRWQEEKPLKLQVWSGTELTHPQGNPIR", "experiment": "Competition binding assay (displacement of ^3H-tiotidine)", "excerpt": "(§1) All test animals were used in accordance with the National Institutes of Health Guidelines for the Care and Use of Laboratory Animals and Permission for Use of Laboratory Animals 34401-1/2010/8 and U34401-12/2013/3 issued by the Administration of the Republic of Slovenia for Food Safety, Veterinary and Plant Protection to prepare primary astrocytes cultures from newborn not-treated rat. 3 day old rats were sacrificed by decapitation, followed by removing the brain cortices. Primary cultures of astrocytes were prepared and cultured as previously described. Cells were grown in high-glucose Dulbecco's modified Eagle's medium (DMEM), containing 10% fetal bovine serum (FBS), 1 mM pyruvate, 2 mM glutamine, and 25 μg/ml gentamycin in 95% air-5% CO2. Confluent cultures were shaken at 225 rpm overnight and the medium was changed the next morning; this was repeated a total of three times. After the third overnight shaking, the cells were trypsinized and cultured for 24 h in 10 μM cytosine arabinoside. After reaching confluence again the cells were subcultured into 12-well clusters and grown until becoming confluent again. The confluent cells were detached, washed twice in PBS, and cell sediment was stored at –70°C until used for the binding assay.\nIn the competition binding experiments, astrocyte cells were incubated together in the presence of different histaminergic ligands in the concentration range from 0.01 nM– 100 μM under the same incubation conditions as above. The concentration of ^3H-tiotidine used was 5 nM. The binding reaction was rapidly terminated and the bound ligand was separated from the unbound by vacuum filtration. The radioactivity trapped on the GF/C glass fiber filters was counted in a liquid scintillation counter (Microbeta, Perkin Elmer, USA).\n(§2) The binding experiments were routinely carried out in triplicate and each experiment was repeated at least twice. The results are expressed as means ± SEM. The binding parameters (KD, Bmax, and IC50) were calculated by a non-linear regression method using software Prism6 version 6.00, GraphPad Software Inc. (San Diego, USA). A comparison of the data among the groups was carried out using Student`s unpaired t-test with Welch correction, where two groups of data were compared. Differences were considered significant at p < 0.05."}, "[2]": {"conditions": "MP2/6–31++G(2d,2p) and Langevin dipole calculated value; cited from earlier work"}, "histamine H2 receptor [3]": {"biological_target": "T1, histamine H2 receptor", "experiment": "^3H-tiotidine saturation binding assay", "conditions": "cultured neonatal rat astrocytes; for Kd: read-out: equilibrium dissociation constant (KD)", "excerpt": "as §1\n0.1 mg of astrocyte cell protein was incubated for 15 minutes at 25°C in 0.15M Na^+/K^+ -phosphate buffer (pH 7.4) or in 0.15M Na^+/K^+ -phosphate buffer made using D2O instead of miliQ water (pH 7.4) in a total volume of 0.25 mL with the indicated concentrations of ^3H-tiotidine (1–15 nM), with a specific activity of 82.2 Ci/mmol. Specific binding represented the difference between total and non-specific binding (binding in the presence of 1 μM cimetidine).\nas §2"}, "[4]": {"conditions": "regular phosphate buffer (control)"}},
  "note": "Like-named read-outs stand apart in the source and are kept apart here.",
  "data": [
    {"molecule": "NCCc1c[nH]cn1", "note": "[histamine]", "values": [
      {"measurement": "binding free energy", "setting": "histamine H2 receptor [1]; control (H), from measured value 56 nM", "result": "–9.86 kcal/mol"},
      {"measurement": "IC50", "setting": "histamine H2 receptor [1]; control (H), read-out: reported measured value (ligand binding constant)", "result": 56, "unit": "nM"},
      {"measurement": "ΔEINTER(exp) ΔΔE(H2O–D2O); experimental difference in binding free energy upon deuteration", "setting": "histamine H2 receptor [1]; ΔGBIND(H→D) = −RT ln(KD/KH)", "result": 0.73, "unit": "kcal mol^–1"},
      {"measurement": "hydration free energy", "setting": "[2]", "result": "–68.6 kcal mol^–1"}
    ]},
    {"molecule": "[2H]N([2H])CCc1cn([2H])cn1", "note": "[deuterated histamine]", "values": [
      {"measurement": "binding free energy", "setting": "histamine H2 receptor [1]; deuterated (D), from measured value 16 nM", "result": "–10.59 kcal/mol"}
    ]},
    {"molecule": "Cc1ncc(CCN)[nH]1", "note": "[2-methylhistamine]", "values": [
      {"measurement": "IC50", "setting": "histamine H2 receptor [1]", "result": 4.17, "unit": "nM"}
    ]},
    {"molecule": "NCCc1c[nH]cn1", "note": "[deuterated histamine]", "values": [
      {"measurement": "IC50", "setting": "histamine H2 receptor [1]; deuterated (D), read-out: reported measured value (ligand binding constant)", "result": 16, "unit": "nM"}
    ]},
    {"molecule": "CN=C(NC#N)NCCSCc1csc(N=C(N)N)n1", "note": "[^3H-tiotidine]", "values": [
      {"measurement": "maximal binding capacity (Bmax)", "setting": "histamine H2 receptor [3]; deuterated medium (D2O)", "result": "17.1 ± 2.7", "unit": "fmol/mg protein"},
      {"measurement": "Kd", "setting": "histamine H2 receptor [3]; deuterated medium (D2O)", "result": "7.4 ± 2.4", "unit": "nM"},
      {"measurement": "maximal binding capacity (Bmax)", "setting": "histamine H2 receptor [3]; [4]", "result": "18.6 ± 1.7", "unit": "fmol/mg protein"},
      {"measurement": "Kd", "setting": "histamine H2 receptor [3]; [4]", "result": "4.7 ± 1", "unit": "nM"}
    ]}
  ]
}
